From patent US20230265048A1, “NOVEL SPHINGOLIPID CONTAINING BRANCHED-CHAIN FATTY ACID AND USE THEREOF” (SOLUS BIOTECH CO., LTD., priority 2020, published 2023)

Assays:
[1] = tested on: skin erythema index on the cheek area; assay: Test Example 6: erythema relieving effect (Mexameter MX 18); assay type: in vivo, human
Experimental: The branched chain fatty acid ceramide-containing formulation prepared in Example 6 was clinically tested for erythema relieving effect. Specifically, for erythema measurement, a total of 10 test subjects were subjected to application of the branched chain fatty acid ceramide-containing formulation prepared in Example 6 twice a day, and measured before use (Week 0), 1 week after use, and 2 weeks after use by an instrument. The skin erythema index on the cheek area was measured using Mexameter MX 18 of Courage+Khazaka (C-K) (Cologne, Germany).

[2] = Test Example 3: Solubility in oils and polyols; assay type: physicochemical; parameters: key: −: Non-soluble; +: Soluble (recrystallization occurred after cooling to room temperature); ++: Very soluble (recrystallization did not occur after cooling to room temperature); details: heated at 80° C., cooled to room temperature
Experimental: The ceramides of Example 4, Comparative Example 1, and Comparative Example 2 were mixed with oils and polyols at 0.1 to 1.0 wt % relative to the solvent substance, and then heated with stirring at 80° C. and then cooled to room temperature.

Solubility ([2]; Butylene glycol, 0.1%): +
Solubility ([2]; Butylene glycol, 0.5%): +
Solubility ([2]; Caprylic/capric triglyceride, 0.1%): −
Solubility ([2]; Caprylic/capric triglyceride, 0.5%): −
Solubility ([2]; Cetyl ethyl hexanoate, 0.1%): −
Solubility ([2]; Cetyl ethyl hexanoate, 0.5%): −
Solubility ([2]; Dipropylene glycol, 0.1%): +
Solubility ([2]; Dipropylene glycol, 0.5%): −
Solubility ([2]; Glycerin, 0.1%): −
Solubility ([2]; Glycerin, 0.5%): −
Solubility ([2]; Macadamia ternifolisa seed oil, 0.1%): −
Solubility ([2]; Macadamia ternifolisa seed oil, 0.5%): −
Solubility ([2]; Propylene glycol, 0.1%): −
Solubility ([2]; Propylene glycol, 0.5%): −
SMILES: CCCCCCCC/C=C\CCCCCCCC(=O)N[C@@H](CO)[C@H](O)/C=C/CCCCCCCCCCCCC [Comparative Example 2, Oleoyl ceramide, reference compound]
Erythema (skin erythema index) ([1]; Week 0 (before use)): 261.53 ± 10.82
Erythema (skin erythema index) ([1]; Week 1, applied twice a day): 236.2 ± 11.578
Erythema (skin erythema index) ([1]; Week 2, applied twice a day): 213.47 ± 11.518
